{"source": "paper PMC5538713", "about": "“RORγt and RORα signature genes in human Th17 cells” (PLoS ONE, 2017)", "key": {"[1]": {"molecular_target": "T1, D1 (h) (Homo sapiens, UniProt P21728)", "T1 construct": "purchased Cerep", "T1 sequence (P21728 whole entry)": "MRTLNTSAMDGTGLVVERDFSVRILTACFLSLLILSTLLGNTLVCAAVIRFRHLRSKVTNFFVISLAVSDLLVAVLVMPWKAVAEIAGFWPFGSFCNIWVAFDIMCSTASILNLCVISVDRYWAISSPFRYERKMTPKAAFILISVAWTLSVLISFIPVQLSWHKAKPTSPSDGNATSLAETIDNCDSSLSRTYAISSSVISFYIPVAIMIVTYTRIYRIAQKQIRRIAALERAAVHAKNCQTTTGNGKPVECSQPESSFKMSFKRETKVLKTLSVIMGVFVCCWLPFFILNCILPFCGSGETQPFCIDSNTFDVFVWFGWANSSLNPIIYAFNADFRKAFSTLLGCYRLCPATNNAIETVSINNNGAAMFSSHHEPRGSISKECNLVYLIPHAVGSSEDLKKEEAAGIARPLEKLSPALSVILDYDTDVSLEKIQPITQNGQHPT", "experiment": "Cerep selectivity panel", "assay_type": "binding", "conditions": "for inhibition at 1 µM: read-out: % Inhibition at 1µM; for inhibition at 10 µM: read-out: % Inhibition at 10µM", "experimental": "(§1) Supplementary file pone.0181868.s003.docx: S3 Table Selectivity profile of RORγt inverse agonists A, B, C and D. Compounds were evaluated at 1 μM and 10 μM in a panel of assays against 50 receptors, ion channels and transporters (Profile service by Cerep Inc.). (DOCX) Click here for additional data file.\n(§2) S3 Table. RORɣt inverse agonists A, B, C and D were evaluated at 1 µM and 10 µM in a panel of assays against 50 receptors, ion channels and transporters (Profile service by Cerep Inc.)."}, "[2]": {"molecular_target": "T2, AT1 (h) (Homo sapiens, UniProt P30556)", "T2 construct": "purchased Cerep", "T2 sequence (P30556 1-359)": "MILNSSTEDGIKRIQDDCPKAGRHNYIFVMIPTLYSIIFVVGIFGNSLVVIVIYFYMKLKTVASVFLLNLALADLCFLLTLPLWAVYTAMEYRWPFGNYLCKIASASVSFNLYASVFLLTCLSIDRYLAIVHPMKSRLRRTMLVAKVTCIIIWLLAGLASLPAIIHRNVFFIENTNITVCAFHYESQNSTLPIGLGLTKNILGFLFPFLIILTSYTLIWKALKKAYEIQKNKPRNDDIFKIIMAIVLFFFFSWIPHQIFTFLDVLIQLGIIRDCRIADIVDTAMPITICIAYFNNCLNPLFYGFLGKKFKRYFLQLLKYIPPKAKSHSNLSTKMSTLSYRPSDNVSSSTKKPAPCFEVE", "experiment": "Cerep selectivity panel", "assay_type": "binding", "conditions": "for inhibition at 1 µM: read-out: % Inhibition at 1µM; for inhibition at 10 µM: read-out: % Inhibition at 10µM", "experimental": "as §1, §2"}, "[3]": {"molecular_target": "T3, Ab1 (h) (Homo sapiens, UniProt P08588)", "T3 construct": "purchased Cerep", "T3 sequence (P08588 whole entry)": "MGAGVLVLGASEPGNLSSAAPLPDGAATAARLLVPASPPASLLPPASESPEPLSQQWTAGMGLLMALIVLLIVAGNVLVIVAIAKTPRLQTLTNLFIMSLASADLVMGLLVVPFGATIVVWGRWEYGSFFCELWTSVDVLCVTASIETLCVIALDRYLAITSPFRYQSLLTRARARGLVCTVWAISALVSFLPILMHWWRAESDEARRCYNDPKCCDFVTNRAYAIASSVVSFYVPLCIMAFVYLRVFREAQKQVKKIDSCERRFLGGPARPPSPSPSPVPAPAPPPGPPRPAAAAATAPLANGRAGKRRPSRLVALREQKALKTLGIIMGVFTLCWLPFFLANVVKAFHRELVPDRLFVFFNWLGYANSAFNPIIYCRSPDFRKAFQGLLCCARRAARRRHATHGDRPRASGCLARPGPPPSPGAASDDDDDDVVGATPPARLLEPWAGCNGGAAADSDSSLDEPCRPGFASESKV", "experiment": "Cerep selectivity panel", "assay_type": "binding", "conditions": "for inhibition at 1 µM: read-out: % Inhibition at 1µM; for inhibition at 10 µM: read-out: % Inhibition at 10µM", "experimental": "as §1, §2"}, "[4]": {"molecular_target": "T4, ɣ2 (h) (Homo sapiens, UniProt P49146)", "T4 construct": "purchased Cerep", "T4 sequence (P49146 1-381)": "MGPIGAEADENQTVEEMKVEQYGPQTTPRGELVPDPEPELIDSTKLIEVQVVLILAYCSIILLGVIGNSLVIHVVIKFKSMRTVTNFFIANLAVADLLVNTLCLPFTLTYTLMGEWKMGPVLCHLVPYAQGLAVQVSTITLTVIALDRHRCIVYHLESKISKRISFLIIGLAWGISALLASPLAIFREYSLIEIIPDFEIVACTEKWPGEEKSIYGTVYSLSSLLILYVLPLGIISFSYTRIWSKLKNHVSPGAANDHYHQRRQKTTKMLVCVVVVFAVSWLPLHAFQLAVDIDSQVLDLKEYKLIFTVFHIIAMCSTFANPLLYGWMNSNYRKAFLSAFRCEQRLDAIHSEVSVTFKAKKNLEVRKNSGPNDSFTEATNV", "experiment": "Cerep selectivity panel", "assay_type": "binding", "experimental": "as §1, §2"}, "[5]": {"test_system": "human CD4 T cells, IL-17A production", "experiment": "Th17 differentiation assay (IL-17A production)", "assay_type": "cell-based", "conditions": "72 h; for IC50: Homo sapiens, CD4+ T, read-out: Th17 Differentiation (IL-17A production) (IC50, nM)"}, "[6]": {"molecular_target": "T5, RORα LBD (Homo sapiens, UniProt P35398)", "T5 construct": "made in house; host or cells: E. coli BL21DE3 GOLD, pET24a", "T5 sequence (P35398 304-556 isoform P35398-1)": "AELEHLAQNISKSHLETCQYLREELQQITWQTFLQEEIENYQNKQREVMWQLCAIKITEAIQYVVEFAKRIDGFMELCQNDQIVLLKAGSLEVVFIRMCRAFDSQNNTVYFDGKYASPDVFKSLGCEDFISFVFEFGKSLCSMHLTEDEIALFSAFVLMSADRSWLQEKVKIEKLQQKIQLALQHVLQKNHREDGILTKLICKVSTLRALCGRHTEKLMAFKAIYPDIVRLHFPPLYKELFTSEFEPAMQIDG", "experiment": "ThermoFluor binding assay, RORα LBD", "conditions": "for Kd: recombinant human LBD, read-out: ThermoFlour Binding Assay (Kd, nM) RORα", "experimental": "Recombinant human RORγ, RORα and RORβ LBD proteins were prepared for ThermoFlour binding assay. The nucleotide sequences encoding the ligand binding domains (LBD) of human RORγ (Genbank accession no. NP005051, amino acid 237–497), RORα (Genbank accession no. NP599022, amino acid 304–556), and RORβ (Genbank accession no. NP008845, amino acid 201–452) were PCR-amplified and cloned into pET24a (Novagen) for expression in bacteria. All recombinant proteins contained an additional amino acid sequence of […] at the N-terminal of LBD. After transformation of the bacteria strain BL21DE3 GOLD (Agilent) with the plasmids, 10 to 20 L cultures were grown to 1 OD and recombinant protein expression was induced overnight at 16°C with 0.2mM isopropyl-beta-D-thiogalactopyranoside (IPTG) (Corning). […]. His-tagged proteins were collected with Ni-NTA resin (Qiagen) and purified with a HiTrap Q HP column (GE Life Sciences) eluted with a 40 CV gradient of 50-500mM NaCl.\nThe ThermoFluor® assay was established to measure the change in protein stability upon binding with compounds. 1-Anilinonaphthalene-8-Sulfonic Acid (1,8-ANS) (Invitrogen) was used as a fluorescent dye to label the test proteins. The assay was performed in polypropylene PCR microplates (TF-0384/k, Abgene) with a final assay of 3 μL reaction mixture per well overlaid with 1 μL silicone oil (Sigma-Aldrich). Assay plates were robotically loaded onto a thermostatically controlled PCR-type thermal block and then heated at a ramp-rate of 1°C/min. Fluorescence emission was initiated by continuous illumination with UV light (LC6, Hamamatsu) via fiber optic with a band-pass filter (380–400 nm) and detected with a CCD camera (Sensys, Roper Scientific) filtered to detect signal of 500 ± 25 nm. Reference wells contained recombinant LBD of RORγt, RORα or RORβ alone, and the assay conditions were as follows: 0.065 mg/mL RORγt LBD, 60 μM 1,8-ANS, 100 mM HEPES pH 7.0, 10 mM NaCl, 2.5 mM GSH, 0.002% Tween- 20; 0.1 mg/mL RORα, 70 μM 1,8-ANS, 25 mM HEPES pH 7.0, 50 mM NaCl, 0.001% Tween-20; 0.08 mg/mL RORβ, 60 μM 1,8-ANS, 50 mM HEPES pH 7.0, 100 mM NaCl, 0.001% Tween-20. All 3 assays were performed in the absence and in the presence of 100 μM co-activator peptide SRC1 ([…], England Peptide custom synthesis). The binding affinity of test compounds was estimated as described previously."}, "[7]": {"test_system": "CI Channel", "experiment": "Cerep selectivity panel", "assay_type": "binding"}, "[8]": {"molecular_target": "T6, A2A (h) (Homo sapiens, UniProt P29274)", "T6 construct": "purchased Cerep", "T6 sequence (P29274 whole entry)": "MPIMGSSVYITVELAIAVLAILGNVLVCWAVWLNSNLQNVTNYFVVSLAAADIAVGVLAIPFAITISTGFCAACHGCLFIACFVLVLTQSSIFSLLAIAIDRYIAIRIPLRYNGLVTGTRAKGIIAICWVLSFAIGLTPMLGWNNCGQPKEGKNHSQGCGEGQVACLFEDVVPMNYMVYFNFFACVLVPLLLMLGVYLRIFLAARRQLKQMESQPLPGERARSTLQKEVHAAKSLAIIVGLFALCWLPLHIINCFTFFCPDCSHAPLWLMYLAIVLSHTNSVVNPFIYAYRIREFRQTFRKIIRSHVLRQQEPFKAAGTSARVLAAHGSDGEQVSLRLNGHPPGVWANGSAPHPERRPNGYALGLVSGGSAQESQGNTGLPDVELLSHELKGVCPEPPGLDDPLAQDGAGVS", "experiment": "Cerep selectivity panel", "assay_type": "binding", "conditions": "for inhibition at 1 µM: read-out: % Inhibition at 1µM; for inhibition at 10 µM: read-out: % Inhibition at 10µM", "experimental": "as §1, §2"}, "[9]": {"molecular_target": "T7, 5HT2B (h) (Homo sapiens, UniProt P41595)", "T7 construct": "purchased Cerep", "T7 sequence (P41595 whole entry)": "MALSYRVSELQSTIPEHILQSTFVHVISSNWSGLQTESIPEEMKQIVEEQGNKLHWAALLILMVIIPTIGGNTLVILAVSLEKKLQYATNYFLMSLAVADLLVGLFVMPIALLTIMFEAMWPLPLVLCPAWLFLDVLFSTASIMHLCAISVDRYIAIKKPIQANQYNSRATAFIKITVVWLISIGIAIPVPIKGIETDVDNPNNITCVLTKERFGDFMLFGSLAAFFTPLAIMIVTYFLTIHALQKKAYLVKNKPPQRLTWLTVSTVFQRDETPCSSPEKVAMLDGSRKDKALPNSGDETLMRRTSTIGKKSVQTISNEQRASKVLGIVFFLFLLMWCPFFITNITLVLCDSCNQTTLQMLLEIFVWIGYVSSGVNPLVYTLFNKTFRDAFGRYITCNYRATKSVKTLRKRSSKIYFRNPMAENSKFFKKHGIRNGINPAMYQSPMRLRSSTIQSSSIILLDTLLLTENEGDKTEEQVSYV", "experiment": "Cerep selectivity panel", "assay_type": "binding", "conditions": "for inhibition at 10 µM: read-out: % Inhibition at 10µM", "experimental": "as §1, §2"}}, "note": "pIC50, pKd: −log10 of the molar value. Read-outs that look alike come from different tables or passages of the source.", "data": [{"smiles": "COc1nc2ccc([C@](O)(c3ccc(Cl)cc3)c3cncn3C)cc2c(Cl)c1Cc1ccc(-n2cccn2)cc1", "note": "[B]", "values": [{"measurement": "inhibition at 1 µM", "setting": "[1]", "result": 10, "unit": "%"}, {"measurement": "inhibition at 10 µM", "setting": "[1]", "result": 29, "unit": "%"}, {"measurement": "inhibition at 1 µM", "setting": "[2]", "result": 1, "unit": "%"}, {"measurement": "inhibition at 10 µM", "setting": "[2]", "result": 16, "unit": "%"}, {"measurement": "inhibition at 1 µM", "setting": "[3]", "result": 0, "unit": "%"}, {"measurement": "inhibition at 10 µM", "setting": "[3]", "result": 2, "unit": "%"}, {"measurement": "inhibition at 10 µM", "setting": "[4]", "result": 10, "unit": "%"}, {"measurement": "IC50", "setting": "[5]", "result": 84.5, "unit": "nM"}, {"measurement": "pKd", "setting": "[6]", "result": "< 4.71"}, {"measurement": "% Inhibition at 1µM", "setting": "[7]", "result": 24, "unit": "%"}, {"measurement": "% Inhibition at 10µM", "setting": "[7]", "result": 66, "unit": "%"}]}, {"smiles": "COc1nc2ccc([C@@](O)(c3ccccc3)C3CCN(C(C)=O)CC3)cc2c(Cl)c1Cc1ccc(-n2cccn2)cc1", "note": "[C]", "values": [{"measurement": "inhibition at 10 µM", "setting": "[1]", "result": 11, "unit": "%"}, {"measurement": "inhibition at 10 µM", "setting": "[2]", "result": 11, "unit": "%"}, {"measurement": "inhibition at 1 µM", "setting": "[8]", "result": 18, "unit": "%"}, {"measurement": "inhibition at 10 µM", "setting": "[8]", "result": 21, "unit": "%"}, {"measurement": "inhibition at 1 µM", "setting": "[9]; read-out: % Inhibition at 1µM", "result": 17.5, "unit": "%"}, {"measurement": "inhibition at 10 µM", "setting": "[9]", "result": 1, "unit": "%"}, {"measurement": "inhibition at 10 µM", "setting": "[4]", "result": 5, "unit": "%"}, {"measurement": "IC50", "setting": "[5]", "result": 18.3, "unit": "nM"}, {"measurement": "Kd", "setting": "[6]", "result": "> 70000", "unit": "nM"}, {"measurement": "% Inhibition at 1µM", "setting": "[7]", "result": 16, "unit": "%"}, {"measurement": "% Inhibition at 10µM", "setting": "[7]", "result": 45, "unit": "%"}]}, {"smiles": "COc1nc2ccc([C@@](O)(c3ccc(C)nc3C)c3cnnn3C)cc2c(Cl)c1Cc1ccc(C(F)(F)F)cc1", "note": "[compound A]", "values": [{"measurement": "inhibition at 1 µM", "setting": "[1]; D1 (h), 1 µM", "result": 16, "unit": "%"}, {"measurement": "inhibition at 10 µM", "setting": "[1]; D1 (h), 10 µM", "result": 48, "unit": "%"}, {"measurement": "inhibition at 1 µM", "setting": "[2]; AT1 (h), 1 µM", "result": 0, "unit": "%"}, {"measurement": "inhibition at 10 µM", "setting": "[2]; AT1 (h), 10 µM", "result": 32, "unit": "%"}, {"measurement": "inhibition at 1 µM", "setting": "[8]; A2A (h), 1 µM", "result": 20, "unit": "%"}, {"measurement": "inhibition at 10 µM", "setting": "[8]; A2A (h), 10 µM", "result": 5, "unit": "%"}, {"measurement": "inhibition at 10 µM", "setting": "[9]; 5HT2B (h), 10 µM", "result": 43, "unit": "%"}, {"measurement": "inhibition at 1 µM", "setting": "[3]; Ab1 (h), 1 µM", "result": 0, "unit": "%"}, {"measurement": "inhibition at 10 µM", "setting": "[3]; Ab1 (h), 10 µM", "result": 10, "unit": "%"}, {"measurement": "pIC50", "setting": "[5]; human CD4 T cells, 3 days, read-out: Th17 Differentiation (IL-17A production) (IC50)", "result": 8.43}, {"measurement": "Kd", "setting": "[6]", "result": 166, "unit": "nM"}, {"measurement": "% Inhibition at 1µM", "setting": "[7]", "result": 26, "unit": "%"}, {"measurement": "% Inhibition at 10µM", "setting": "[7]", "result": 87, "unit": "%"}]}, {"smiles": "CN(C)c1nc2ccc(C(O)(c3ccncc3)c3cncn3C)cc2c(Cl)c1-c1ccccc1", "note": "(stereo not shown) [compound D]", "values": [{"measurement": "inhibition at 10 µM", "setting": "[1]", "result": 40, "unit": "%"}, {"measurement": "inhibition at 10 µM", "setting": "[2]", "result": 28, "unit": "%"}, {"measurement": "inhibition at 1 µM", "setting": "[8]", "result": 2, "unit": "%"}, {"measurement": "inhibition at 10 µM", "setting": "[8]", "result": 43, "unit": "%"}, {"measurement": "inhibition at 10 µM", "setting": "[9]", "result": 106, "unit": "%"}, {"measurement": "inhibition at 1 µM", "setting": "[3]", "result": 3, "unit": "%"}, {"measurement": "inhibition at 10 µM", "setting": "[3]", "result": 2, "unit": "%"}, {"measurement": "inhibition at 1 µM", "setting": "[4]; 1 µM", "result": 10, "unit": "%"}, {"measurement": "inhibition at 10 µM", "setting": "[4]", "result": 15, "unit": "%"}, {"measurement": "IC50", "setting": "[5]", "result": 22.2, "unit": "nM"}, {"measurement": "pKd", "setting": "[6]", "result": 6.72}]}]}
